Measurements: the NIST ThermoML archive (doi:10.1016/j.jct.2005.11.003)
± gives the expanded uncertainty stated by the source.

Columns and labels:
[1] = xn = mol fraction of the nth substance listed; conditions: 298.15 K, 101 kPa, Liquid
[2] = 298.15 K; 101.33 kPa; Liquid
[3] = refractive index (Na D-line) (dimensionless); conditions: 298.15 K; 101.33 kPa; Liquid
[4] = excess molar enthalpy (molar enthalpy of mixing); xn = mol fraction of the nth substance listed; conditions: 298.15 K, 101 kPa, Liquid

CCCCOC(=O)CCC [butyl butanoate] + ClCCCl
[1]
Conditions	mass density [kg/m3]
x1 = 0.0297	1221.83 ± 0.57
x1 = 0.0605	1198.84 ± 0.55
x1 = 0.0933	1176.2 ± 0.52
x1 = 0.1275	1153.91 ± 0.49
x1 = 0.1649	1131.5 ± 0.47
x1 = 0.2054	1109 ± 0.45
x1 = 0.2498	1086.2 ± 0.43
x1 = 0.2967	1064.01 ± 0.42
x1 = 0.3484	1041.64 ± 0.4
x1 = 0.4037	1019.73 ± 0.39
x1 = 0.4652	997.47 ± 0.39
x1 = 0.5324	975.45 ± 0.41
x1 = 0.605	953.73 ± 0.43
x1 = 0.6862	931.87 ± 0.46
x1 = 0.7785	909.66 ± 0.49
x1 = 0.8821	887.38 ± 0.52

CCCCOC(=O)CCC [butyl butanoate]
Conditions	mass density [kg/m3]	refractive index
[2]	864.84 ± 0.98	–
[3]	–	1.404 ± 0.001

ClCCCCCCCl [1,6-dichlorohexane] + CCCCOC(C)=O
[1]
Conditions	mass density [kg/m3]
x2 = 0.0673	1052.28 ± 1.1
x2 = 0.1308	1041.35 ± 1
x2 = 0.1929	1030.53 ± 1
x2 = 0.2552	1019.5 ± 0.99
x2 = 0.3164	1008.57 ± 0.96
x2 = 0.3768	997.63 ± 0.93
x2 = 0.4368	986.64 ± 0.91
x2 = 0.4966	975.54 ± 0.89
x2 = 0.554	964.77 ± 0.87
x2 = 0.6113	953.89 ± 0.85
x2 = 0.6692	942.75 ± 0.83
x2 = 0.7252	931.87 ± 0.81
x2 = 0.7823	920.59 ± 0.79
x2 = 0.8912	898.78 ± 0.76
x2 = 0.9466	887.47 ± 0.75

ClCCCCCCl [1,5-dichloropentane] + CCCCOC(=O)CC
[1]
Conditions	mass density [kg/m3]
x2 = 0.0528	1081.66 ± 0.6
x2 = 0.1047	1068.55 ± 0.59
x2 = 0.1575	1055.43 ± 0.57
x2 = 0.2116	1042.24 ± 0.56
x2 = 0.3217	1016.04 ± 0.54
x2 = 0.3799	1002.5 ± 0.52
x2 = 0.4359	989.71 ± 0.52
x2 = 0.5529	963.57 ± 0.52
x2 = 0.6167	949.63 ± 0.52
x2 = 0.6773	936.67 ± 0.52
x2 = 0.7411	923.24 ± 0.53
x2 = 0.8045	910.15 ± 0.53
x2 = 0.8667	897.51 ± 0.54
x2 = 0.9333	884.23 ± 0.54

CCCCOC(=O)CCC [butyl butanoate] + ClCCCCl
[1]
Conditions	mass density [kg/m3]
x1 = 0.0357	1159.7 ± 0.7
x1 = 0.0715	1141.38 ± 0.67
x1 = 0.1103	1122.7 ± 0.65
x1 = 0.1503	1104.39 ± 0.63
x1 = 0.1936	1085.72 ± 0.61
x1 = 0.2376	1067.78 ± 0.59
x1 = 0.2869	1048.84 ± 0.57
x1 = 0.3371	1030.74 ± 0.55
x1 = 0.3921	1012.12 ± 0.53
x1 = 0.4496	993.89 ± 0.52
x1 = 0.5117	975.49 ± 0.52
x1 = 0.5785	957.03 ± 0.52
x1 = 0.6494	938.78 ± 0.52
x1 = 0.7262	920.43 ± 0.53
x1 = 0.8114	901.61 ± 0.53
x1 = 0.8978	884.02 ± 0.54

ClCCCCl [1,3-dichloropropane] + CCCCOC(C)=O
[1]
Conditions	mass density [kg/m3]
x2 = 0.046	1159.83 ± 0.71
x2 = 0.0904	1142.04 ± 0.7
x2 = 0.1361	1124.29 ± 0.69
x2 = 0.1839	1106.48 ± 0.68
x2 = 0.2336	1088.53 ± 0.67
x2 = 0.2841	1070.96 ± 0.66
x2 = 0.3935	1035.06 ± 0.65
x2 = 0.5106	999.49 ± 0.65
x2 = 0.6371	964.06 ± 0.67
x2 = 0.7043	946.37 ± 0.68
x2 = 0.7737	928.82 ± 0.7
x2 = 0.8467	911.1 ± 0.71
x2 = 0.923	893.45 ± 0.72

CCCCOC=O [butyl methanoate] + ClCCCl
Conditions	excess molar enthalpy [kcal/mol]	mass density [kg/m3]
[1], x1 = 0.0423	–	1223.68 ± 0.61
[1], x1 = 0.0859	–	1202 ± 0.62
[1], x1 = 0.1303	–	1180.75 ± 0.64
[1], x1 = 0.1772	–	1159.35 ± 0.67
[1], x1 = 0.2251	–	1138.25 ± 0.7
[1], x1 = 0.2748	–	1117.45 ± 0.74
[1], x1 = 0.3271	–	1096.31 ± 0.78
[1], x1 = 0.382	–	1075.28 ± 0.83
[1], x1 = 0.4376	–	1054.83 ± 0.88
[1], x1 = 0.497	–	1034.05 ± 0.93
[1], x1 = 0.5604	–	1012.84 ± 0.99
[1], x1 = 0.6255	–	992.02 ± 1.1
[1], x1 = 0.6925	–	971.62 ± 1.1
[1], x1 = 0.7638	–	950.97 ± 1.2
[1], x1 = 0.8379	–	930.45 ± 1.3
[1], x1 = 0.9173	–	909.53 ± 1.3
[4], x1 = 0.0384	0.00172 ± 0.000789	–
[4], x1 = 0.0884	0.000765 ± 0.000765	–
[4], x1 = 0.1406	-0.00378 ± 0.00086	–
[4], x1 = 0.2002	-0.0103 ± 0.00105	–
[4], x1 = 0.254	-0.018 ± 0.00129	–
[4], x1 = 0.3052	-0.026 ± 0.00155	–
[4], x1 = 0.35	-0.0329 ± 0.00177	–
[4], x1 = 0.3874	-0.0387 ± 0.00194	–
[4], x1 = 0.4396	-0.0436 ± 0.0021	–
[4], x1 = 0.4751	-0.0469 ± 0.0022	–
[4], x1 = 0.5277	-0.049 ± 0.00225	–
[4], x1 = 0.5938	-0.0454 ± 0.00215	–
[4], x1 = 0.6645	-0.0433 ± 0.00208	–
[4], x1 = 0.741	-0.0382 ± 0.00194	–
[4], x1 = 0.8303	-0.029 ± 0.00165	–
[4], x1 = 0.9138	-0.0176 ± 0.00129	–

ClCCCCCCCl [1,6-dichlorohexane] + CCCCOC=O
Conditions	excess molar enthalpy [kcal/mol]	mass density [kg/m3]
[1], x2 = 0.0782	–	1052.81 ± 1.1
[1], x2 = 0.1483	–	1042.74 ± 1.2
[1], x2 = 0.2157	–	1032.73 ± 1.2
[1], x2 = 0.2827	–	1022.46 ± 1.2
[1], x2 = 0.3478	–	1012.18 ± 1.2
[1], x2 = 0.4104	–	1002.02 ± 1.2
[1], x2 = 0.5319	–	981.37 ± 1.3
[1], x2 = 0.5893	–	971.18 ± 1.3
[1], x2 = 0.6457	–	960.88 ± 1.3
[1], x2 = 0.7539	–	940.28 ± 1.4
[1], x2 = 0.8053	–	930.03 ± 1.4
[1], x2 = 0.9044	–	909.61 ± 1.4
[1], x2 = 0.9513	–	899.53 ± 1.4
[4], x2 = 0.0701	0.0129 ± 0.00115	–
[4], x2 = 0.1508	0.0227 ± 0.00143	–
[4], x2 = 0.2299	0.0298 ± 0.00167	–
[4], x2 = 0.3026	0.0332 ± 0.00177	–
[4], x2 = 0.371	0.0338 ± 0.00179	–
[4], x2 = 0.434	0.0322 ± 0.00174	–
[4], x2 = 0.491	0.0291 ± 0.00165	–
[4], x2 = 0.5401	0.0255 ± 0.00153	–
[4], x2 = 0.5778	0.0221 ± 0.00143	–
[4], x2 = 0.6131	0.02 ± 0.00136	–
[4], x2 = 0.6659	0.0173 ± 0.00127	–
[4], x2 = 0.7195	0.016 ± 0.00124	–
[4], x2 = 0.7775	0.0137 ± 0.00117	–
[4], x2 = 0.8372	0.0105 ± 0.00108	–
[4], x2 = 0.8968	0.00693 ± 0.000956	–
[4], x2 = 0.9528	0.00313 ± 0.000837	–

CCCCOC(C)=O [butyl ethanoate]
Conditions	mass density [kg/m3]	refractive index
[2]	876.4 ± 1.1	–
[3]	–	1.3918 ± 0.001

ClCCCCCl [1,4-dichlorobutane] + CCCCOC(=O)CC
[1]
Conditions	mass density [kg/m3]
x2 = 0.0475	1117.36 ± 0.64
x2 = 0.0925	1102.34 ± 0.63
x2 = 0.1874	1072.01 ± 0.59
x2 = 0.239	1056.26 ± 0.58
x2 = 0.29	1041.21 ± 0.56
x2 = 0.3443	1025.65 ± 0.54
x2 = 0.4006	1010.07 ± 0.53
x2 = 0.5171	979.4 ± 0.52
x2 = 0.5798	963.71 ± 0.52
x2 = 0.6418	948.74 ± 0.52
x2 = 0.7075	933.4 ± 0.52
x2 = 0.8474	902.46 ± 0.53
x2 = 0.8829	894.96 ± 0.54
x2 = 0.9206	887.11 ± 0.54
x2 = 0.9575	879.61 ± 0.54

ClCCCCCCl [1,5-dichloropentane] + CCCCOC=O
Conditions	excess molar enthalpy [kcal/mol]	mass density [kg/m3]
[1], x2 = 0.0616	–	1083.81 ± 0.67
[1], x2 = 0.126	–	1071.76 ± 0.72
[1], x2 = 0.1909	–	1059.46 ± 0.77
[1], x2 = 0.2522	–	1047.68 ± 0.82
[1], x2 = 0.3138	–	1035.64 ± 0.88
[1], x2 = 0.3757	–	1023.39 ± 0.93
[1], x2 = 0.4364	–	1011.18 ± 0.98
[1], x2 = 0.4966	–	998.9 ± 1
[1], x2 = 0.5548	–	986.84 ± 1.1
[1], x2 = 0.6137	–	974.47 ± 1.1
[1], x2 = 0.6701	–	962.48 ± 1.2
[1], x2 = 0.7247	–	950.68 ± 1.2
[1], x2 = 0.7822	–	938.09 ± 1.2
[1], x2 = 0.8374	–	925.86 ± 1.3
[1], x2 = 0.8906	–	913.92 ± 1.3
[1], x2 = 0.9443	–	901.66 ± 1.4
[4], x2 = 0.069	0.0113 ± 0.0011	–
[4], x2 = 0.1384	0.0179 ± 0.00129	–
[4], x2 = 0.2122	0.023 ± 0.00146	–
[4], x2 = 0.2809	0.025 ± 0.00151	–
[4], x2 = 0.3459	0.025 ± 0.00151	–
[4], x2 = 0.4058	0.0233 ± 0.00146	–
[4], x2 = 0.4619	0.0205 ± 0.00139	–
[4], x2 = 0.4922	0.0168 ± 0.00127	–
[4], x2 = 0.5374	0.0124 ± 0.00112	–
[4], x2 = 0.5877	0.0111 ± 0.00108	–
[4], x2 = 0.6417	0.00825 ± 0.001	–
[4], x2 = 0.7001	0.00729 ± 0.00098	–
[4], x2 = 0.7618	0.00571 ± 0.000908	–
[4], x2 = 0.8234	0.00366 ± 0.00086	–
[4], x2 = 0.8876	0.00206 ± 0.000813	–
[4], x2 = 0.9487	0.00105 ± 0.000765	–
